From patent US11440906B2, “Biguanide derivatives and their rearrangement products for use in the treatment of cancer” (CENTRE NATIONAL DE LA RECHERCHE SCIENTIFIQUE, priority 2017, dated 2022)
Like-named read-outs stand apart in the source and are kept apart here.

How the values were obtained:
[1] = test system: A375 Sensitive cells; test: Viability test, trypan blue exclusion, A375 Sensitive cells; assay type: cell-based, human; conditions: Homo sapiens, A-375, viable cells as percentage of DMSO control
Outline: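 A375 (B-Raf, CDKN2A, PTEN mutant) cells were exposed to compounds at 5.0 or 10 μM for 24 or 48 hr; CRO15 also at 0.5–50 μM for 48 hr or 5 μM for 2–48 hr; DMSO control. Viable cells were counted by trypan blue exclusion, as % of control. Three experiments in triplicate.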

[2] = test system: melanoma cells; conditions: literature, read-out: IC50 to induce cell death; cited from earlier work
[3] = test system: A375 resistant melanoma cells; test: In vivo murine cancer model, A375 resistant xenograft; set-up: species or system BALB/c nu/nu (nude) mice; conditions: 0.7 mg/mouse/day intraperitoneal
Description: Animal experiments were carried out in accordance with the Declaration of Helsinki and were approved by a local ethical committee CIEPAL (Comité Institutionnel d'Ethique Pour l'Animal de Laboratoire-Azur). Female immune-deficient BALB/c nu/nu (nude) mice were obtained at 5 weeks of age from Envigo Laboratory (Gannat, France). Nude mice were inoculated subcutaneously with A375 sensitive or resistant melanoma cells (1.0×10^6 cells/mouse). After tumor apparition (±5 days), animals received intraperitoneal injection of Labrafil (Control), PLX4032 (0.7 mg/mouse/day) or CRO15 (0.7 mg/mouse/day) dissolved in Labrafil. The growth tumor curves were determined by measuring the tumor volume using the equation V=(L*W2)/2 (V=tumor volume, W=tumor width, L=tumor length). At the end of the experiment, mice were euthanized by cervical dislocation and tumors were taken for western blot and immunofluorescence experiments (LC3, Cleaved Caspase 3). TUNEL assay was performed using the In Situ Cell Death Detection Kit (Roche, Meylan, France). The results are shown in FIGS. 3A and 3B (A375 sensitive melanoma cells), and 4B and 4C (A375 resistant melanoma cells).
In Vivo Murine Cancer Model Animal experiments were carried out in accordance with the Declaration of Helsinki and were approved by a local ethical committee CIEPAL (Comite Institutionnel d'Ethique Pour l'Animal de Laboratoire-Azur). Female immune-deficient BALB/c nu/nu (nude) mice were obtained at 5 weeks of age from Envigo Laboratory (Gannat, France). Nude mice were inoculated subcutaneously with A375 resistant melanoma cells (1.0×10^6 cells/mouse). After tumor apparition (+5 days), animals received intraperitoneal injection of Labrafil (Control), PLX4032 (0.7 mg/mouse/day) or MTF319 (0.7 mg/mouse/day) dissolved in Labrafil. The growth tumor curves were determined by measuring the tumor volume using the equation V=(L*W2)/2 (V=tumor volume, W=tumor width, L=tumor length). At the end of the experiment, mice were euthanized by cervical dislocation.

[4] = 24 h, read-out: Viab A375 5 μM/ 24 h
[5] = 48 h, read-out: Viab A375 5 μM/ 48 h
[6] = 24 h, read-out: Viab A375 10 μM/ 24 h
[7] = 48 h, read-out: Viab A375 10 μM/ 48 h

| SMILES | viability at 5 µM [1, 4] | viability at 5 µM [1, 5] | viability at 10 µM [1, 6] | viability at 10 µM [1, 7] | IC50 [2] | tumor volume ([3]; FIG. 4B, 6A) | tumor weight ([3]; FIG. 4C, 6B) |
| --- | --- | --- | --- | --- | --- | --- | --- |
| Cc1csc(NC(=N)NC(=N)c2ccncc2)n1 [MTF 291, N—(N-(4-methylthiazol-2-yl)carbamimidoyl)isonicotinimidamide] | 100% | 95.2% | 100% | 41.3% | – | – | – |
| N=C(NC(=N)C(Cl)(Cl)Cl)Nc1nc2ccccc2s1 [MTF 305, N—(N-(benzo[d]thiazol-2-yl)carbamimidoyl)-2,2,2-trichloroacetimidamide] | 11% | 20.7% | 5.5% | 4.7% | – | – | – |
| Nc1nc(Nc2ccccc2SSc2ccccc2Nc2nc(N)nc(-c3ccccc3)n2)nc(-c2ccccc2)n1 [MTF 326, N2,N2′-(disulfanediylbis(2,1-phenylene))bis(6-phenyl-1,3,5-triazine-2,4-diamine)] | 27.4% | 27.9% | 12.9% | 6.7% | – | – | – |
| N=C(NC(=N)c1ccncc1)Nc1nc(-c2cccc([N+](=O)[O-])c2)cs1 [MTF 261, N—(N-(4-(3-nitrophenyl)thiazol-2-yl)carbamimidoyl)isonicotinimidamide] | 24.6% | 63.6% | 71.9% | 115% | – | – | – |
| N=C(NC(=N)c1ccccc1)Nc1nc(-c2ccccc2)cs1 [MTF 272, N—(N-(4-phenylthiazol-2-yl)carbamimidoyl)benzimidamide] | 100% | 81% | 88% | 54.6% | – | – | – |
| Cc1ccc2nc(NC(=N)NC(=N)c3cccc(Br)c3)sc2c1 [MTF 265, 3-bromo-N—(N-(6-methylbenzo[d]thiazol-2-yl)carbamimidoyl)benzimidamide] | 91% | 100% | 84% | 60% | – | – | – |
| CN(C)C(=N)N=C(N)N [metformin] | – | – | – | – | 10 mM | – | – |
| N=C(NC(=N)c1cscc1Br)Nc1nc2ccccc2s1 [MTF 387, N—(N-(benzo[d]thiazol-2-yl)carbamimidoyl)-4-bromothiophene-3-carboximidamide] | 70.1% | 56.2% | 67.8% | 55.6% | – | – | – |
| N=C(NC(=N)c1cccc(C(F)(F)F)c1)Nc1nc2ccccc2s1 [MTF 343, N—(N-(benzo[d]thiazol-2-yl)carbamimidoyl)-3-(trifluoromethyl)benzimidamide] | 67.7% | 52.9% | 34.8% | 24.1% | – | – | – |
| N=C(NC(=N)c1cccc(Cl)c1)Nc1nc(-c2cccc([N+](=O)[O-])c2)cs1 [MTF 277, 3-chloro-N—(N-(4-(3-nitrophenyl)thiazol-2-yl)carbamimidoyl)benzimidamide] | 77.6% | 88% | 76.4% | 85.8% | – | – | – |
| Nc1nc(Nc2ccccc2O)nc(-c2cccc(Br)c2)n1 [MTF 331, 2-((4-amino-6-(3-bromophenyl)-1,3,5-triazin-2-yl)amino)phenol] | 104% | 82.9% | 151% | 77.4% | – | – | – |
| Cc1nc(NC(=N)NC(=N)c2ccccn2)sc1C [MTF 297, N—(N-(4,5-dimethylthiazol-2-yl)carbamimidoyl)picolinimidamide] | 86.2% | 59.8% | 97.9% | 24.9% | – | – | – |
| CCOc1cccc(-c2nc(N)nc(Nc3ccccc3SSc3ccccc3Nc3nc(N)nc(-c4cccc(OCC)c4)n3)n2)c1 [MTF 319, N2,N2′-(disulfanediylbis(2,1-phenylene))bis(6-(3-ethoxyphenyl)-1,3,5-triazine-2,4-diamine)] | 8.6% | 3.1% | 8.6% | 0.6% | – | decrease in tumor volume | had an effect on the tumor growth |
| COc1ccc(C(=N)NC(=N)Nc2nc(C)cs2)cc1 [MTF 292, 4-methoxy-N—(N-(4-methylthiazol-2-yl)carbamimidoyl)benzimidamide] | 88.1% | 83.3% | 142% | 71.9% | – | – | – |
| N#Cc1cccc(-c2nc(N)nc(Nc3ccccc3SSc3ccccc3Nc3nc(N)nc(-c4cccc(C#N)c4)n3)n2)c1 [MTF 325, 3,3′-(((disulfanediylbis(2,1-phenylene))bis(azanediyl))bis(6-amino-1,3,5-triazine-4,2-diyl))dibenzonitrile] | 58.1% | 30.9% | 71% | 29.7% | – | – | – |
| Cc1nc(NC(=N)NC(=N)c2ccc(Cl)cc2)sc1C [MTF 302, 4-chloro-N—(N-(4,5-dimethylthiazol-2-yl)carbamimidoyl)benzimidamide] | 105% | 52.3% | 94.8% | 39.3% | – | – | – |
